The text below walks through data of patent US7279317B2, “Modulation of COP9 signalsome isopeptidase activity” (California Institute of Technology, priority 2001, dated 2007).

In assay [1] the target is T1, 26S proteasome (Saccharomyces cerevisiae, UniProt P25043+P30656+P38624+P43588).
T1 construct: made in house; host or cells: Saccharomyces cerevisiae
The assay is described as follows: Deubiquitination and degradation of multiubiquitinated Sic1 by purified 26S proteasome, immunoblot. Type of assay: biochemical. The note with it: 2.5 μM; in the presence of epoxomicin. (In general: In western blotting, separated proteins are transferred to a membrane and probed.)

In the next assay the target is T2, CSN (Schizosaccharomyces pombe, UniProt O94454).
T2 construct: addition (+) of wild type lysate (which contained active CSN); endogenous in cells; host or cells: wild type S. pombe cell lysate
Briefly: Nedd8 conjugate cleavage (deneddylation of Pcu1/Cul1) by CSN in S. pombe cell extracts, immunoblot. The note with it: 30 min at 30° C.; for inhibition of Nedd8 conjugate cleavage activity of CSN (Nedd8 deconjugation from Cul1): 1 mM chelator. Type of assay: biochemical. As to the method: On the basis of this analysis, it was hypothesized that CSN represents the founding member of a novel class of metalloproteases. To test this hypothesis, the effect of a divalent cation chelator on the Nedd8 conjugate cleavage activity associated with CSN was examined. Mutant csn5Δ S. pombe cell extract that contained neddylated Pcu1 was incubated either alone (−) or following addition (+) of wild type lysate (which contained active CSN) supplemented with either methanol vehicle (MeOH), 1 mM 1,10-phenanthroline (O-PT), or 1 mM, 10 mM, or 20 mM EDTA.
Reactions were incubated 30 min at 30° C. and terminated by addition of SDS-PAGE sample buffer, fractionated by SDS-PAGE, transferred to nitrocellulose, and immunoblotted with antibodies directed against S. pombe Cul1. Filter-bound antibodies were decorated with goat-anti-rabbit antibody conjugated to horse radish peroxidase and visualized with ECL reagents (Lyapina et al., supra, 2001).
The status of Nedd8 conjugation to Cul1 was determined by the mobility of Cul1 on the SDS-polyacrylamide gel. Nedd8-conjugated Cul1 migrated more slowly than unmodified Cul.

The subject of assay [2] is 26S proteasome. As to conditions: prior work; cited from earlier work.

T2 sequence (O94454 whole entry): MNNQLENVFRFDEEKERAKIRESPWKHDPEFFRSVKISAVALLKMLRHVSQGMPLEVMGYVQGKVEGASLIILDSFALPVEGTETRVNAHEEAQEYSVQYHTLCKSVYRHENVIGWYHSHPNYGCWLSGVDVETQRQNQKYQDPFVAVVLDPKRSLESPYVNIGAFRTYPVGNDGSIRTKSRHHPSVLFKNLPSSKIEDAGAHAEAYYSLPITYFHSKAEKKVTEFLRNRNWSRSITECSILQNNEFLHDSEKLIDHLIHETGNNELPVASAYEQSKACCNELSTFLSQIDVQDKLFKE
T2 sequence (O94308 whole entry partner): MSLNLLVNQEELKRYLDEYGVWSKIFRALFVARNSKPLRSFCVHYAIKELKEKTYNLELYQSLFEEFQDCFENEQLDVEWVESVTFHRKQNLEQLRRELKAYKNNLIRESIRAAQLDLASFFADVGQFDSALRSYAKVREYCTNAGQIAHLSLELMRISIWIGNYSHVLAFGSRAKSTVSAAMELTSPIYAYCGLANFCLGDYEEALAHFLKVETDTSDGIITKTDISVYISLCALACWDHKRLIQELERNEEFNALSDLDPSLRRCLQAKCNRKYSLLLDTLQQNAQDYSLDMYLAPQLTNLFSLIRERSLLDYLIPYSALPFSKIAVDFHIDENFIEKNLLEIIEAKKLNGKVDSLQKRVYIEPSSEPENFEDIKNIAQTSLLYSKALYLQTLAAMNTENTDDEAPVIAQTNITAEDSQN
T2 sequence (Q9HFR0 whole entry partner): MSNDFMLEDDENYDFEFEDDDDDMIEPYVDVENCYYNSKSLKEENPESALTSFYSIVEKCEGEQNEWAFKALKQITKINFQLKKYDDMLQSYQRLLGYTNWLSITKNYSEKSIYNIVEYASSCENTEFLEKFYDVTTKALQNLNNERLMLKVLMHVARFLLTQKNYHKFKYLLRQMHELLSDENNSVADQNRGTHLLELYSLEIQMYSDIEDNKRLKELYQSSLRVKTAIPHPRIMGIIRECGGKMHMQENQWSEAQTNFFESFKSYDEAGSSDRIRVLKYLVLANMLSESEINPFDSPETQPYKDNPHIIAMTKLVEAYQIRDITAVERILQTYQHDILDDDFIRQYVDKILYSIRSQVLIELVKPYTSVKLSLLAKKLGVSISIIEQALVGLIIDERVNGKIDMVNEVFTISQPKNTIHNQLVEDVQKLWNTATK
T2 sequence (O13895 whole entry partner): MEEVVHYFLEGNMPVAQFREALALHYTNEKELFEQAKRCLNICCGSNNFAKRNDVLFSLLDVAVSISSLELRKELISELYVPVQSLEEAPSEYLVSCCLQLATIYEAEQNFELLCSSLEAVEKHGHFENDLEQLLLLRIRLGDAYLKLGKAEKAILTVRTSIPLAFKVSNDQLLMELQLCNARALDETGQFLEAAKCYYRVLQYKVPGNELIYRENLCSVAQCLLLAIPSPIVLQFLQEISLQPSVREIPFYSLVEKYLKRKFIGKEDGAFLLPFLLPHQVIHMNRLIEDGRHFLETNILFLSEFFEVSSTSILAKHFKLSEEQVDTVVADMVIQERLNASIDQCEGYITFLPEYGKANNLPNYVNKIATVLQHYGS
T2 sequence (Q8WZK4 whole entry partner): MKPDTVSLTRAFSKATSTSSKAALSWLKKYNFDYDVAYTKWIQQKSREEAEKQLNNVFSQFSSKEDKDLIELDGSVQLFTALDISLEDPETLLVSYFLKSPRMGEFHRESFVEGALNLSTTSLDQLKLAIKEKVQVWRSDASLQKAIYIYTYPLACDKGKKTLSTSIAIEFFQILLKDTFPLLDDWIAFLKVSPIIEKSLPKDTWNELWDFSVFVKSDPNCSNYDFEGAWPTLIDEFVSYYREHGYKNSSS
T2 sequence (Q9UUJ7 whole entry partner): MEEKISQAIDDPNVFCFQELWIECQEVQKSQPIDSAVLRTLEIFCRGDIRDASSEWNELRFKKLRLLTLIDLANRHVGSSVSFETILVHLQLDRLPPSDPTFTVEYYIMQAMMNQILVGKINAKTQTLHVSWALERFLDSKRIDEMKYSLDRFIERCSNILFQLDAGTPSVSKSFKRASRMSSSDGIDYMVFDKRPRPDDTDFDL

For ubiquitin vinyl sulfone, on 26S proteasome [1], the “sensitivity of Sic1 deubiquitination by 26S proteasome to the inhibitor” value is listed as “not sensitive”.

Take `O=C(O)CN(CCN(CC(=O)O)CC(=O)O)CC(=O)O` [EDTA]: the “inhibition of Nedd8 conjugate cleavage activity of CSN (Nedd8 deconjugation from Cul1)” value on CSN is “No inhibition”. Moreover, the “inhibition of Nedd8 deconjugation from Cul1 by CSN” value against CSN (10 mM) is “less than 50%”; at CSN (20 mM) it was “almost complete inhibition”.

As to `c1cnc2c(c1)ccc1cccnc12` [1,10-phenanthroline], the “sensitivity of 26S proteasome-associated isopeptidase activity” value in the assay with 26S proteasome [2] is on record as “sensitive”. In addition, the “inhibition of Nedd8 conjugate cleavage activity of CSN (Nedd8 deconjugation from Cul1)” value at CSN was “completely inhibited”.
